From US7396837B2, “Antitumoral analogs of lamellarins” (Pharma Mar, S.A.U., priority 2002, dated 2008)
Where two headings read alike, the source gives them in different places.

Assays:
human topoisomerase I = molecular target: T1, human topoisomerase I (Homo sapiens, UniProt P11387); assay: Topoisomerase I DNA relaxation assay (supercoiled plasmid DNA); assay type: biochemical; details: supercoiled plasmid DNA, each compound tested at 1 μM, agarose gel with ethidium bromide
T1 sequence (P11387 1-765): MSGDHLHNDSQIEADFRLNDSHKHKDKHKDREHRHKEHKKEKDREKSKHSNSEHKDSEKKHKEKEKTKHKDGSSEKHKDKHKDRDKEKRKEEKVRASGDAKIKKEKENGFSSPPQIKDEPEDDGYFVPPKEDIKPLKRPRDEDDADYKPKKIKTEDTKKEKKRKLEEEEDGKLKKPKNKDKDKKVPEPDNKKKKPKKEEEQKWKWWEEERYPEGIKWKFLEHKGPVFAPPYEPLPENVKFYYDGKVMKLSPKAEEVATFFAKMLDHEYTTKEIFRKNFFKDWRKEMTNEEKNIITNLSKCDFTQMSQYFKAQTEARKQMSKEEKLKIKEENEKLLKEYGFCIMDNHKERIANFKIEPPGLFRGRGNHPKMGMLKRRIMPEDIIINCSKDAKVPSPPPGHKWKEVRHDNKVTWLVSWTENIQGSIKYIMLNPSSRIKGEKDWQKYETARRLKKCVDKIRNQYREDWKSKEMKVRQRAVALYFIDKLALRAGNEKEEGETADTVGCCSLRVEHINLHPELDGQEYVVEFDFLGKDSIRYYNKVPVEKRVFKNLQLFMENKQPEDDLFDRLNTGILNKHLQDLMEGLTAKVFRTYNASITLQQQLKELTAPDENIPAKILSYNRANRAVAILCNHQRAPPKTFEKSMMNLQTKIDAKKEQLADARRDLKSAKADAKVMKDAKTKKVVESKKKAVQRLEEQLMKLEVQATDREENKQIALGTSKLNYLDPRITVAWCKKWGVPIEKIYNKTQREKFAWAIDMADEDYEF
Summary of the method: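 Test compounds (1 μM each) were present during topoisomerase I relaxation of supercoiled plasmid DNA. Relaxation was assessed on ethidium bromide-stained agarose gels.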

DU-145 = assay: SRB colorimetric cell growth inhibition assay, DU-145; assay type: cell-based; details: Homo sapiens; for CC50: cell killing (cytotoxic effect); for GI50: GI=growth inhibition, read-out: GI50 DU-145; for IC (TGI): total growth inhibition (cytostatic effect), read-out: TGI DU-145
Summary of the method: (§1)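 Read-out: sulforhodamine B colorimetry of surviving cell mass after continued exposure of human tumour lines to sample. Values are means ± SD of three wells, expressed as GI, TGI or LC.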

SK-MEL-28 = assay: SRB colorimetric cell growth inhibition assay, SK-MEL-28; assay type: cell-based; details: Homo sapiens; for GI50: GI=growth inhibition, read-out: GI50 MEL-28; for CC50: cell killing (cytotoxic effect); for IC (TGI): total growth inhibition (cytostatic effect), read-out: TGI MEL-28
Summary of the method: as §1

K-562 = assay: SRB colorimetric cell growth inhibition assay, K-562; assay type: cell-based; details: Homo sapiens; for GI50: GI=growth inhibition, read-out: GI50 K-562; for IC (TGI): read-out: TGI K-562
Summary of the method: as §1

LNCaP = assay: SRB colorimetric cell growth inhibition assay, LNCaP; assay type: cell-based; details: Homo sapiens, LNCaP; for GI50: GI=growth inhibition, read-out: GI50 LN-caP; for CC50: cell killing (cytotoxic effect); for IC (TGI): total growth inhibition (cytostatic effect), read-out: TGI LN-caP
Summary of the method: as §1

IGROV = assay: SRB colorimetric cell growth inhibition assay, IGROV; assay type: cell-based
Summary of the method: as §1

SK-BR-3 = assay: SRB colorimetric cell growth inhibition assay, SK-BR-3; assay type: cell-based; details: Homo sapiens; for CC50: cell killing (cytotoxic effect); for GI50: GI=growth inhibition, read-out: GI50 SK-BR-3; for IC (TGI): total growth inhibition (cytostatic effect), read-out: TGI SK-BR-3
Summary of the method: as §1

PANC-1 = assay: SRB colorimetric cell growth inhibition assay, PANC-1; assay type: cell-based; details: Homo sapiens; for IC (TGI): read-out: TGI PANC-1; for GI50: GI=growth inhibition, read-out: GI50 PANC-1
Summary of the method: as §1

IGROV-ET = assay: SRB colorimetric cell growth inhibition assay, IGROV-ET (ET-743 resistant); assay type: cell-based; details: Homo sapiens; for GI50: GI=growth inhibition, read-out: GI50 IGROV-ET; for CC50: cell killing (cytotoxic effect); for IC (TGI): total growth inhibition (cytostatic effect), read-out: TGI IGROV-ET
Summary of the method: as §1

A-549 = assay: SRB colorimetric cell growth inhibition assay, A-549; assay type: cell-based; details: Homo sapiens; for GI50: GI=growth inhibition, read-out: GI50 A-549; for IC (TGI): read-out: TGI A-549
Summary of the method: as §1

LoVo = assay: SRB colorimetric cell growth inhibition assay, LoVo; assay type: cell-based; details: Homo sapiens; for GI50: GI=growth inhibition, read-out: GI50 LOVO; for IC (TGI): read-out: TGI LOVO
Summary of the method: as §1

HT-29 = assay: SRB colorimetric cell growth inhibition assay, HT-29; assay type: cell-based; details: Homo sapiens; for GI50: GI=growth inhibition, read-out: GI50 HT-29; for IC (TGI): read-out: TGI HT-29
Summary of the method: as §1

LoVo-Dox = assay: SRB colorimetric cell growth inhibition assay, LoVo-Dox (MDR); assay type: cell-based; details: Homo sapiens; for GI50: GI=growth inhibition, read-out: GI50 LOVO-DOX; for IC (TGI): read-out: TGI LOVO-DOX
Summary of the method: as §1

SKOV-3 = assay: SRB colorimetric cell growth inhibition assay, SKOV-3; assay type: cell-based; details: Homo sapiens; for GI50: SK-OV-3, SKOV-3, GI=growth inhibition, read-out: GI50 SKOV-3; for IC (TGI): total growth inhibition (cytostatic effect), read-out: TGI SKOV-3
Summary of the method: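 Growth inhibition (GI), total growth inhibition (TGI, cytostatic) and lethal concentration (LC, cytotoxic) come from an SRB-based colorimetric measure of growth and viability. Data are triplicate-well means ± SD.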

COc1cc(-c2c3n(c4c(=O)oc5cc(OC(=O)[C@@H](N)Cc6c[nH]c7ccccc67)c(OC)cc5c24)CCc2cc(OC(=O)[C@@H](N)Cc4c[nH]c5ccccc45)c(OC)cc2-3)ccc1OC(=O)[C@@H](N)Cc1c[nH]c2ccccc12 [Compound 24]
stimulation of DNA cleavage by topoisomerase I / inhibition of topoisomerase I (nicked DNA band) in DNA relaxation assay (human topoisomerase I): inhibit topoisomerase I
CC50 (DU-145; DU-145, DU-145, read-out: LC50 DU-145): 7130 nM
GI50 (DU-145; DU-145): 913 nM
IC (TGI) (DU-145; DU-145): 2940 nM
GI50 (SK-MEL-28; SK-MEL-28, MEL-28): 1380 nM
CC50 (SK-MEL-28; SK-MEL-28, MEL-28, read-out: LC50 MEL-28): 5740 nM
IC (TGI) (SK-MEL-28; SK-MEL-28, MEL-28): 2810 nM
GI50 (K-562; K562, K-562): 680 nM
CC50 (K-562; K562, K-562, cell killing (cytotoxic effect), read-out: LC50 K-562): 5300 nM
IC (TGI) (K-562; K562, K-562, total growth inhibition (cytostatic effect)): 1910 nM
GI50 (LNCaP; LN-caP): 934 nM
CC50 (LNCaP; LN-caP, read-out: LC50 LN-caP): 3890 nM
IC (TGI) (LNCaP; LN-caP): 1910 nM
CC50 (IGROV; Homo sapiens, IGROV; cell killing (cytotoxic effect); read-out: LC50 IGROV): 7130 nM
GI50 (IGROV; Homo sapiens; IGROV; GI=growth inhibition; read-out: GI50 IGROV): 1230 nM
IC (TGI) (IGROV; Homo sapiens; IGROV; total growth inhibition (cytostatic effect); read-out: TGI IGROV): 4820 nM
CC50 (SK-BR-3; SK-BR-3, SK-BR-3, read-out: LC50 SK-BR-3): 5580 nM
GI50 (SK-BR-3; SK-BR-3): 653 nM
IC (TGI) (SK-BR-3; SK-BR-3): 1930 nM
CC50 (PANC-1; PANC-1, PANC-1, cell killing (cytotoxic effect), read-out: LC50 PANC-1): 7130 nM
IC (TGI) (PANC-1; PANC-1, PANC-1, total growth inhibition (cytostatic effect)): 6230 nM
GI50 (PANC-1; PANC-1): 1340 nM
GI50 (IGROV-ET; IGROV-ET): 1310 nM
CC50 (IGROV-ET; IGROV-ET, read-out: LC50 IGROV-ET): 7130 nM
IC (TGI) (IGROV-ET; IGROV-ET): 7130 nM
GI50 (A-549; A549, A-549): 1550 nM
CC50 (A-549; A549, A-549, cell killing (cytotoxic effect), read-out: LC50 A-549): 7130 nM
IC (TGI) (A-549; A549, A-549, total growth inhibition (cytostatic effect)): 3370 nM
CC50 (LoVo; LoVo, cell killing (cytotoxic effect), read-out: LC50 LOVO): 4280 nM
GI50 (LoVo; LOVO): 749 nM
IC (TGI) (LoVo; LOVO, total growth inhibition (cytostatic effect)): 1780 nM
CC50 (HT-29; HT-29, HT-29, cell killing (cytotoxic effect), read-out: LC50 HT-29): 7130 nM
GI50 (HT-29; HT-29): 7130 nM
IC (TGI) (HT-29; HT-29, total growth inhibition (cytostatic effect)): 7130 nM
GI50 (LoVo-Dox; LOVO-DOX): 891 nM
CC50 (LoVo-Dox; LOVO-DOX, cell killing (cytotoxic effect), read-out: LC50 LOVO-DOX): 7130 nM
IC (TGI) (LoVo-Dox; LOVO-DOX, total growth inhibition (cytostatic effect)): 3660 nM
GI50 (SKOV-3): 1670 nM
LC50 (concentration causing 50% net cell killing) (SKOV-3; SK-OV-3, SKOV-3, cell killing (cytotoxic effect), read-out: LC50 SKOV-3): 6900 nM
IC (TGI) (SKOV-3; SK-OV-3, SKOV-3): 3390 nM

COc1cc(-c2c3n(c4c(=O)oc5cc(OC(=O)[C@H](N)C(C)C)c(OC)cc5c24)CCc2cc(OC(=O)[C@H](N)C(C)C)c(OC)cc2-3)ccc1OC(=O)[C@H](N)C(C)C [Compound 32]
stimulation of DNA cleavage by topoisomerase I / inhibition of topoisomerase I (nicked DNA band) in DNA relaxation assay (human topoisomerase I): No effect
GI50 (DU-145; DU-145, DU-145): 111 nM
IC (TGI) (DU-145; DU-145, DU-145): 309 nM
CC50 (DU-145; DU-145, read-out: LC50 DU-145, DU-145): 857 nM
GI50 (SK-MEL-28; SK-MEL-28, MEL-28): 1350 nM
IC (TGI) (SK-MEL-28; SK-MEL-28, MEL-28): 2870 nM
CC50 (SK-MEL-28; SK-MEL-28, read-out: LC50 MEL-28, MEL-28): 6130 nM
GI50 (K-562; K562, K-562): 673 nM
IC (TGI) (K-562; K562, K-562, TGI=total growth inhibition (cytostatic effect)): 2430 nM
CC50 (K-562; K562, read-out: LC50 K-562, K-562, LC=cell killing (cytotoxic effect)): 8310 nM
GI50 (LNCaP; LN-caP): 429 nM
IC (TGI) (LNCaP; LN-caP): 1670 nM
CC50 (LNCaP; read-out: LC50 LN-caP, LN-caP): 5080 nM
CC50 (IGROV; Homo sapiens, IGROV, read-out: LC50 IGROV, IGROV; cell killing (cytotoxic effect)): 6120 nM
GI50 (IGROV; Homo sapiens, IGROV; GI=growth inhibition; read-out: GI50 IGROV): 561 nM
IC (TGI) (IGROV; Homo sapiens, IGROV; total growth inhibition (cytostatic effect); read-out: TGI IGROV): 2060 nM
GI50 (SK-BR-3; SK-BR-3, SK-BR-3): 1300 nM
IC (TGI) (SK-BR-3; SK-BR-3, SK-BR-3): 3190 nM
CC50 (SK-BR-3; SK-BR-3, read-out: LC50 SK-BR-3, SK-BR-3): 7820 nM
GI50 (PANC-1; PANC-1, PANC-1): 316 nM
IC (TGI) (PANC-1; PANC-1, PANC-1, TGI=total growth inhibition (cytostatic effect)): 1380 nM
CC50 (PANC-1; PANC-1, read-out: LC50 PANC-1, PANC-1, LC=cell killing (cytotoxic effect)): 8760 nM
GI50 (IGROV-ET; IGROV-ET): 666 nM
IC (TGI) (IGROV-ET; IGROV-ET): 3010 nM
CC50 (IGROV-ET; read-out: LC50 IGROV-ET, IGROV-ET): 8760 nM
GI50 (A-549; A549, A-549): 1530 nM
IC (TGI) (A-549; A549, A-549, TGI=total growth inhibition (cytostatic effect)): 3340 nM
CC50 (A-549; A549, read-out: LC50 A-549, A-549, LC=cell killing (cytotoxic effect)): 7330 nM
CC50 (LoVo; LoVo, read-out: LC50 LOVO, LOVO, LC=cell killing (cytotoxic effect)): 6310 nM
GI50 (LoVo; LoVo): 392 nM
IC (TGI) (LoVo; LoVo, TGI=total growth inhibition (cytostatic effect)): 1650 nM
GI50 (HT-29; HT-29, HT-29): 2660 nM
IC (TGI) (HT-29; HT-29, HT-29, TGI=total growth inhibition (cytostatic effect)): 5300 nM
CC50 (HT-29; HT-29, read-out: LC50 HT-29, HT-29, LC=cell killing (cytotoxic effect)): 8760 nM
GI50 (LoVo-Dox; LOVO-DOX): 671 nM
IC (TGI) (LoVo-Dox; LOVO-DOX, TGI=total growth inhibition (cytostatic effect)): 2420 nM
CC50 (LoVo-Dox; read-out: LC50 LOVO-DOX, LOVO-DOX, LC=cell killing (cytotoxic effect)): 8250 nM
GI50 (SKOV-3): 1860 nM
LC50 (concentration causing 50% net cell killing) (SKOV-3; SK-OV-3, read-out: LC50 SKOV-3): 7270 nM
IC (TGI) (SKOV-3; SK-OV-3, SKOV-3): 3670 nM
